Data from patent US20260138958A1, “SUBSTITUTED N-PHENYLURACILS AND SALTS THEREOF, AND USE THEREOF AS HERBICIDAL ACTIVE SUBSTANCES” (Bayer Aktiengesellschaft, priority 2022, published 2026).

How the values were obtained:
Type in all cases: in vivo
[1] = tested on: Triticum aestivum (TRZAS); test: Post-emergence crop plant compatibility, greenhouse pot test; details: crop plant, post-emergence, 1.25 g/ha
Procedure: (§1) Seeds of monocotyledonous and dicotyledonous weeds and crop plants were placed in sandy loam in plastic or wood-fibre pots, covered with soil and cultivated in a greenhouse under controlled growth conditions. 2 to 3 weeks after sowing, the test plants were treated at the one-leaf stage. The compounds of the invention, formulated in the form of wettable powders (WP) or as emulsion concentrates (EC), were then sprayed onto the green parts of the plants as aqueous suspension or emulsion with addition of 0.5% additive at a water application rate of 600 l/ha (converted). After the test plants had been kept in the greenhouse under optimum growth conditions for about 3 weeks, the activity of the preparations was rated visually in comparison to untreated controls. For example, 100% activity=the plants have died, 0% activity=like control plants.
The observed effects on selected crop plants are reported here in comparison to the untreated controls (values in %).

[2] = tested on: Tripleurospermum inodorum (MATIN); test: Post-emergence herbicidal action, greenhouse pot test; details: 20 g/ha
Procedure: as §1

[3] = tested on: Digitaria sanguinalis (DIGSA); test: as above
Procedure: as §1

[4] = tested on: Polygonum convolvulus (POLCO); test: as above
Procedure: as §1

[5] = tested on: Abutilon theophrasti (ABUTH); test: as above
Procedure: as §1

Bassia scoparia (KCHSC) = test: as above
Procedure: as §1

[6] = tested on: Echinochloa crus-galli (ECHCG); test: as above
Procedure: as §1

[7] = tested on: Alopecurus myosuroides (ALOMY); test: as above
Procedure: as §1

Lolium rigidum (LOLRI) = test: as above
Procedure: as §1

Viola tricolor (VIOTR) = test: as above
Procedure: as §1

Setaria viridis (SETVI) = test: as above
Procedure: as §1

[8] = tested on: Pharbitis purpurea (PHBPU); test: as above
Procedure: as §1

Veronica persica (VERPE) = test: as above
Procedure: as §1

[9] = tested on: Amaranthus retroflexus (AMARE); test: as above
Procedure: as §1

Row | Post-emergence effect at 1.25 g/ha against TRZAS in % [1] [%] | Compound | Post-emergence effect at 20 g/ha against MATIN in % [2] [%] | Post-emergence effect at 1.25 g/ha against DIGSA in % [3] [%] | Post-emergence effect at 5 g/ha against DIGSA in % [3] [%] | Post-emergence effect at 20 g/ha against DIGSA in % [3] [%] | Post-emergence effect at 20 g/ha against POLCO in % [4] [%] | Post-emergence effect at 1.25 g/ha against ABUTH in % [5] [%] | Post-emergence effect at 5 g/ha against ABUTH in % [5] [%] | Post-emergence effect at 20 g/ha against ABUTH in % [5] [%] | Post-emergence effect at 1.25 g/ha against KCHSC in % (Bassia scoparia (KCHSC)) [%] | Post-emergence effect at 5 g/ha against KCHSC in % (Bassia scoparia (KCHSC)) [%] | Post-emergence effect at 20 g/ha against KCHSC in % (Bassia scoparia (KCHSC)) [%] | Post-emergence effect at 5 g/ha against ECHCG in % [6] [%] | Post-emergence effect at 20 g/ha against ECHCG in % [6] [%] | Post-emergence effect at 20 g/ha against ALOMY in % [7] [%] | Post-emergence effect at 20 g/ha against LOLRI in % (Lolium rigidum (LOLRI)) [%] | Post-emergence effect at 1.25 g/ha against VIOTR in % (Viola tricolor (VIOTR)) [%] | Post-emergence effect at 5 g/ha against VIOTR in % (Viola tricolor (VIOTR)) [%] | Post-emergence effect at 20 g/ha against VIOTR in % (Viola tricolor (VIOTR)) [%] | Post-emergence effect at 1.25 g/ha against SETVI in % (Setaria viridis (SETVI)) [%] | other results
1 | 20 | Cn1c(C(F)(F)F)cc(=O)n(-c2cc(Oc3ccccc3OCC(=O)OCC3CC3(C)C)c(Cl)cc2F)c1=O (centres unmarked) [I.7-9] | 100 | 100 | 100 | 100 | 100 | 100 | 100 | 100 | 90 | 100 | 100 | 100 | 100 | 100 | 90 | 100 | 100 | 100 | 100 | Post-emergence effect at 1.25 g/ha against ECHCG in % ([6]; 1.25 g/ha): 80%; Post-emergence effect at 5 g/ha against SETVI in % (Setaria viridis (SETVI)): 100%; Post-emergence effect at 20 g/ha against SETVI in % (Setaria viridis (SETVI)): 100%; Post-emergence effect at 1.25 g/ha against PHBPU in % ([8]; 1.25 g/ha): 100%; Post-emergence effect at 5 g/ha against PHBPU in % [8]: 100%; Post-emergence effect at 20 g/ha against PHBPU in % [8]: 100%; Post-emergence effect at 1.25 g/ha against VERPE in % (Veronica persica (VERPE)): 90%; Post-emergence effect at 5 g/ha against VERPE in % (Veronica persica (VERPE)): 100%; Post-emergence effect at 20 g/ha against VERPE in % (Veronica persica (VERPE)): 100%; Post-emergence effect at 1.25 g/ha against AMARE in % [9]: 100%; Post-emergence effect at 5 g/ha against AMARE in % [9]: 100%; Post-emergence effect at 20 g/ha against AMARE in % [9]: 100%
2 | 20 | Cn1c(C(F)(F)F)cc(=O)n(-c2cc(Oc3ccccc3OCC(=O)OCC3(F)CC3)c(Cl)cc2F)c1=O [I.7-6] | 100 | 100 | 100 | 100 | 100 | 100 | 100 | 100 | 100 | 100 | 100 | 100 | 100 | 100 | 80 | 100 | 100 | 100 | 100 | Post-emergence effect at 5 g/ha against POLCO in % ([4]; 5 g/ha): 100%; Post-emergence effect at 1.25 g/ha against ALOMY in % ([7]; 1.25 g/ha): 80%; Post-emergence effect at 5 g/ha against ALOMY in % ([7]; 5 g/ha): 100%; Post-emergence effect at 5 g/ha against SETVI in % (Setaria viridis (SETVI)): 100%; Post-emergence effect at 20 g/ha against SETVI in % (Setaria viridis (SETVI)): 100%; Post-emergence effect at 5 g/ha against PHBPU in % [8]: 100%; Post-emergence effect at 20 g/ha against PHBPU in % [8]: 100%; Post-emergence effect at 1.25 g/ha against VERPE in % (Veronica persica (VERPE)): 100%; Post-emergence effect at 5 g/ha against VERPE in % (Veronica persica (VERPE)): 100%; Post-emergence effect at 20 g/ha against VERPE in % (Veronica persica (VERPE)): 100%; Post-emergence effect at 1.25 g/ha against AMARE in % [9]: 100%; Post-emergence effect at 5 g/ha against AMARE in % [9]: 100%; Post-emergence effect at 20 g/ha against AMARE in % [9]: 100%
